PMC10186355, “Discovery of 5′-Substituted 5-Fluoro-2′-deoxyuridine Monophosphate Analogs: A Novel Class of Thymidylate Synthase Inhibitors” (ACS Pharmacology & Translational Science, 2023)

Biological target: T1, recombinant human thymidylate synthase (hTS) (Homo sapiens, UniProt P04818)
T1 construct: His tag (N); purchased Abcam ab95378
Test: cell-free human thymidylate synthase (hTS) inhibition assay
Format: biochemical
Conditions: 0.84 μM hTS, 50 μM dUMP, 250 μM mTHF, DHF formation at 340 nm, room temperature, pH 7.5
Procedure: This assay measures TS-catalyzed conversion of dUMP and mTHF to dTMP and dihydrofolate (DHF), the latter of which uniquely absorbs strongly at 340 nm (Figures S1 and S2). […] Concentration–response curves were constructed by plotting the normalized reaction rates (calculated using data from the first 100 s after reaction initiation) versus log[inhibitor].
The final concentrations of hTS, dUMP, and mTHF in the reaction systems were 0.84 μM, 50 μM, and 250 μM, respectively. The reaction rates were determined by following the change in the optical absorbance at 340 nm, which corresponded to the formation of the coproduct, DHF.
Human Thymidylate Synthase Inhibition Assay
Recombinant human thymidylate synthase (hTS) was purchased from Abcam (ab95378). The protein was
His-tagged (N-terminal) and >95% pure by SDS-PAGE according to the vendor. dUMP (disodium salt)
(F3503), 5,10-methylenetetrahydrofolate (mTHF, calcium salt , folitixorin calcium ) was purchased from
Boc Sciences (B0084-007873), and all were used without further purification. The cell-free functional hTS
assay protocol was modified from literature procedures :
Inhibition assays were performed using a BioTek Synergy Neo2 plate reader equipped with a Xenon flash
lamp and a photodiode array detector. The hTS reaction was conducted at room temperature in a buffer
solution (pH 7.5) containing 50 mM Tris -HCl, 1 mM EDTA, 25 mM MgCl 2, and 5 mM HCHO. The
reaction system (175 μL total volume, 1 cm optical path lengt h) contained 50 μM dUMP (primary
substrate), 250 μM mTHF (co-substrate and enzyme cofactor), 0.84 μM hTS (enzyme), and decreasing
Formation of the co -product, dihydrofolate, was monitored at 340 nm. Reaction rates were
calculated by plotting t he absorbance at 340 nm against the reaction time and performing linear regression
analysis to determ ine the slope. The reaction rates at different inhibitor concentrations were normalized to
the reaction rate determined in the absence of inhibitor (100% enzymatic activity). Concentration-response
curves were constructed by plotting t he resulting mean % enzymatic activity values (from at least three
independent experiments) against log[inhibitor]. IC50 values were then calculated using non -linear
regression (four -parameter logistic equation, see Equation 1 below) in the GraphPad Prism v.9 software.
Equation 1: Y = Ymin + (Ymax – Ymin) / [1 + 10((logIC50 – X) × Hill Slope)]

T1 sequence (P04818 whole entry): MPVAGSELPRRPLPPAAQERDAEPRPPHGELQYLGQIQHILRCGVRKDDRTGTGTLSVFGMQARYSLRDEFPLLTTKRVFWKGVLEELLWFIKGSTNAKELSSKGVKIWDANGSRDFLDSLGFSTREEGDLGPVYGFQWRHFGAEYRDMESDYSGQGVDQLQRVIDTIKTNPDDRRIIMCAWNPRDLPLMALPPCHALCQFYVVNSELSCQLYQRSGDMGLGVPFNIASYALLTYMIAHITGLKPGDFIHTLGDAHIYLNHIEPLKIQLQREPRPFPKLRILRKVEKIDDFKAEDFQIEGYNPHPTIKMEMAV

SMILES | IC50
C[C@@H](OP(=O)(O)O)[C@H]1O[C@@H](n2cc(F)c(=O)[nH]c2=O)C[C@@H]1O [Compound 1, 5′(R)-CH3 FdUMP] | 1.21 µM
C[C@H](OP(=O)(O)O)[C@H]1O[C@@H](n2cc(F)c(=O)[nH]c2=O)C[C@@H]1O [Compound 2, 5′(S)-CH3 FdUMP] | > 20 µM
CC(C)(OP(=O)(O)O)[C@H]1O[C@@H](n2cc(F)c(=O)[nH]c2=O)C[C@@H]1O [Compound 3, 5′-gem-(CH3)2 FdUMP] | > 20 µM
O=c1[nH]c(=O)n([C@H]2C[C@H](O)[C@@H]([C@H](OP(=O)(O)O)C(F)(F)F)O2)cc1F [Compound 4, 5′(S)-CF3 FdUMP] | 1.24 µM
O=c1[nH]c(=O)n([C@H]2C[C@H](O)[C@@H]([C@@H](OP(=O)(O)O)C(F)(F)F)O2)cc1F [Compound 5, 5′(R)-CF3 FdUMP] | > 20 µM

Tested on: dihydropyrimidine dehydrogenase (DPD)
Test: not given
Design: method as in PMID 9830621, PMID 31756363
Conditions: cited from earlier work

SMILES | catabolic degradation in the liver by DPD
O=c1[nH]cc(F)c(=O)[nH]1 [5-FU, 5-Fluorouracil] | up to 85%
